The nature of data set [1]: Stability after autoxidation induced by radiation (light, 24 hours). Format: physicochemical. Particulars: initial tests (Tables 2 and 3: radiation and high temperature). As to the method:
(§1) The HPLC Analysis was the analysis performed in order to evaluate the stability of the formulations. It was performed using a Column Symmetry C-18 4.6×150 mm, a solution of CH3CN/CH3OH/H2O 45/45/10 as eluent, a flow of 1 ml/min and a Mass spectrometry Detector. The percent amount of EPA and DHA detected are expressed as % by weight. Other stability tests were also performed:
Stability analysis after autoxidation induced by radiation and by high temperature was performed according to the following procedure: • Autoxidation induced by radiation: an amount of 100 mg of the formulation is dispersed in a 5 cm diameter Petri dish, which is placed at a distance of 12 cm from the light source and exposed to light for 24 hours. The light source is constituted by a 13 W lamp with an emission spectrum of from 300 to 640 nm, with peaks at: 440, 490, 540, 590 and 610 nm. The test is carried out at 22° C. at 60% RH • autoxidation induced by high temperature: an amount of 100 mg of the formulation is placed in an amber container and put in a stove at 60° C. for 1 month

The nature of data set [2]: Stability analysis of solid formulations on storage (HPLC recovery of EPA and DHA). Format: physicochemical. As to the method: The formulations were divided into 3 groups and left respectively for 3 and 6 months at 25° C. at 60% RH (relative humidity), for 3 and 6 months at 30° C. at 60% RH or for 3 and 6 months at 40° C. at 70% RH.
as §1
n-3 PUFA were added to Neusilin U.S.-2 in small portions, manually mixing up to obtain a homogeneous solid. Stability tests are carried out at 25° C. at 60% RH, 30° C. at 60% RH and 40° C. at 70% RH as described above for 1, 3 and 6 months.

For the molecule `CCCCCCCCCCCCCCCC(=O)OC[C@H](O)[C@H]1OC(=O)C(O)=C1O` [Ascorbyl palmitate, ascorbyl palmitate], in data set [1], the “improvement of stability of EPA and DHA in the initial tests” value (shortened to “improvement of stability of EPA and DHA”) was “able to improve the stability”.
With `COC1=C(OC)C(=O)C(C/C=C(\C)CC/C=C(\C)CC/C=C(\C)CC/C=C(\C)CC/C=C(\C)CC/C=C(\C)CC/C=C(\C)CC/C=C(\C)CC/C=C(\C)CCC=C(C)C)=C(C)C1=O` [Coenzyme Q10], the “improvement of stability of EPA and DHA” value in data set [1] is “able to improve the stability”.
Take `Oc1ccc(/C=C/c2cc(O)cc(O)c2)cc1` [Resveratrol, 3,5,4′-trihydroxy-trans-stilbene]: the “improvement of stability of EPA and DHA” value in data set [1] is listed as “able to improve the stability”. Moreover, the “ability to maintain stable solid formulations containing omega-3 for longer periods” value in data set [2] (data of Table 4, 3 months) was “the only natural antioxidant able to maintain stable solid formulations containing omega-3 for longer periods”. Besides, the “antioxidant power with respect of that of α-tocopherol” value in data set [2] (from recovery after 3 months at 40° C., 1% antioxidant) was “twice”.
Turning to `Cc1c(C)c2c(c(C)c1O)CC[C@@](C)(CCC[C@H](C)CCC[C@H](C)CCCC(C)C)O2` [α-tocopherol], the “improvement of stability of EPA and DHA” value in data set [1] was “able to improve the stability”.

These data come from patent US20170112791A1, “SOLID FORMULATIONS CONTAINING OMEGA-3 AND RESVERATROL” (SIGMA-TAU INDUSTRIE FARMACEUTICHE RIUNITE S.P.A., priority 2014, published 2017).
